For three compounds, Activity and Ratio IC50 results are on record in ChEMBL document CHEMBL1765021, “Assessing high affinity binding to HLA-DQ2.5 by a novel peptide library based approach” (Bioorg Med Chem, 2011).

Activity calls are given as the source filed them. The rule behind the calls is not given here. Peptide text beside a SMILES is read from it.

For test [1], the species on record is Homo sapiens. The experiment in a line: Binding affinity to MHC class II HLA-DQ2.5 in Epstein-Barr virus-transformed human B lymphocyte.
Test [2] is filed under the species Homo sapiens. The experiment in a line: Ratio of IC50 of peptide P198 for human MHC class II HLA-DQ2.5 to IC50 of peptide for human MHC class II HLA-DQ2.5.

Take `CC(C)C[C@H](NC(=O)[C@H](C)NC(=O)[C@H](C)NC(=O)[C@@H](N)Cc1ccccc1)C(=O)N[C@@H](CCCCN)C(=O)N[C@@H](CCC(=O)O)C(=O)N[C@@H](CCC(=O)O)C(=O)N[C@@H](CCC(=O)O)C(=O)N[C@@H](Cc1ccc(O)cc1)C(=O)N[C@@H](CCCNC(=N)N)C(=O)O` (H-FAALKEEEYR-OH): in the test listed under Homo sapiens [1], the result was Active. Regarding `CC(C)[C@H](NC(=O)[C@H](CCCCN)NC(=O)[C@H](CCC(=O)O)NC(=O)[C@H](C)NC(=O)[C@H](C)NC(=O)[C@@H](N)Cc1ccccc1)C(=O)N[C@@H](CCC(=O)O)C(=O)N[C@@H](CCC(=O)O)C(=O)N[C@@H](Cc1ccccc1)C(=O)N[C@@H](CCCNC(=N)N)C(=O)O` (H-FAAEKVEEFR-OH), in the test filed under Homo sapiens [1], the result was Active.

Consider `CC(C)C[C@H](NC(=O)[C@H](CCC(=O)O)NC(=O)[C@H](CCC(=O)O)NC(=O)[C@H](CCC(=O)O)NC(=O)[C@H](CCCCN)NC(=O)[C@H](CCC(=O)O)NC(=O)[C@H](C)NC(=O)[C@H](C)NC(=O)[C@@H](N)Cc1ccccc1)C(=O)N[C@@H](CCCNC(=N)N)C(=O)O` (H-FAAEKEEELR-OH), for which the Ratio IC50 in the test filed under Homo sapiens [2] is 0.93. Further, the result in the test listed under Homo sapiens [1] was Active.
